Test results taken from US5168102A, “Endocrine manipulation to improve body composition of poultry” (priority 1990, dated 1992).
Several values for one entry are separate records, joined by “and”; a condition that tells them apart may be missing. Identical values can stand only once. Entries after “also recorded” stand apart in the source; their conditions may differ.

Assays:
[1] = Example 3: final body weight and relative weights of liver, abdominal fat and muscles; type: in vivo, broiler cockerels
Protocol: Day-old broiler cockerels were randomly assigned to 24 pens (5 birds/pen) in a battery brooder. The total duration of the bird management period lasted from 7 to 8 weeks. Hereafter, the end of the first week of life of the birds is referred to as week no. 1 (i.e. 7 days of life), the end of the second week as week no. 2, etc. At week no. 3, four birds from each pen were transferred to wire grow-out cages. […] 5 to week no. 7 (4 pens/treatment). Body weight and feed consumption were determined at weekly intervals. A 5 ml blood sample was obtained from each bird at week no. 7 and stored at -20° C. until assayed for plasma hormones.
(§1) At week no. 7 (49 days-of-age), one-half of the birds (8 birds/treatment) were killed for measurement of the abdominal fat pad and liver weights. The muscles were removed, weighed, frozen in liquid N2 and stored at -20° C. until analyzed. At 51 days-of-age, groups of 4 birds per treatment were given a subcutaneous infusion of 4 μCi/Kg of 14C-L-tyrosine emulsified in sesame seed oil and immediately placed in metabolism cages. The expired CO2 was trapped in 15 ml of scrubbing solution (1:2 ethanolamine/methyl cellusolve) and the tubes were changed every 15 minutes for 90 minutes. At 90 minutes, the birds were removed from the metabolism cages and blood was obtained via cardiac puncture. Birds were then sacrificed by cervical dislocation and the muscles were removed, weighed, frozen in liquid N2 and stored at -20° C. until analyzed. Radioactivity in the samples containing trapped CO2 was counted for 10 minutes using a liquid scintillation spectrophotometer. At 54 days-of-age, groups of 4 birds per treatment were killed, the muscles were dissected, weighed, and frozen until analyzed.
(§2) The right breast muscle, i.e. BM (Pectoralis major) and right leg muscles, i.e. LM (gastrocnemius and peroneus longus) were dissected out from the birds, weighed and immediately frozen in liquid nitrogen and stored at -20° C. until analyzed for tyrosine content as specific radioactivity of tyrosine. All muscle tissues were analyzed for protein content; only tissues from isotope experiments were analyzed for tyrosine content as specific radioactivity of tyrosine.

[2] = Example 3: muscle protein turnover (14C-L-tyrosine infusion); type: in vivo, broiler cockerels
Protocol: as §1, §2
FAR of breast muscle and leg muscles were estimated from regression of total muscle protein on age. Total muscle protein was determined by multiplying the muscle weight by protein content. Protein content was determined by the Biuret method. The slope obtained by linear regression was the absolute rate of protein accretion (g/d). The FAR (%/d) was calculated by dividing the absolute accretion rate by the average muscle protein at 51 days-of-age. The FSR (ks) was calculated according to the equation described by Garlick et al., Biochem. J. 136:935 (1973). Protein-bound tyrosine in muscle tissue was separated from free tyrosine according to the procedures of Laurent et al. Biochem. J. 176:419 (1978) with some modification. Approximately 1 g of muscle tissue was homogenized with 5 ml cold distilled water and washed with 15 ml of cold 5% trichloroacetic acid (TCA). The homogenate was then centrifuged for 15 min at 4000×g. The supernatant containing the free tyrosine was poured off and the TCA was extracted with 15 ml of diethyl ether. The supernatant was concentrated to dryness. The dried sample was dissolved in 5 ml of distilled water and stored at 4° C. until analyzed for tyrosine content and the specific radioactivity of tyrosine.
The pellet was extracted with 15 ml of hot 5% TCA, 15 ml of 3:1 ethanol/diethyl ether (v/v) and 20 ml of diethyl ether. The washed pellet was then placed in a 25×150 mm test tube with screw cap and hydrolyzed in 15 ml of 6N hydrochloric acid (HCl) for 16 hours at 125° C. The hydrolysate was concentrated to dryness. The dried sample was dissolved in 5 ml of distilled water and stored at 4° C. until analyzed for tyrosine content and specific radioactivity of tyrosine.
Tyrosine content in free tyrosine (supernatant) and the protein-bound fraction (hydrolysate) was analyzed according to the method of Udenfriend et al, J. Biol. Sci. 196:227 (1952).
The specific radioactivity of tyrosine in the protein-bound fraction (hydrolysate) and in the free tyrosine (supernatant) was analyzed using the method described by Schaefer et al, Can. J. Anim. Sci. 62:1223 (1982). One ml of the samples were added into 10 ml of aquasol and counted for 10 minutes in a liquid scintillation spectrophotometer.

## N[C@@H](Cc1cc(I)c(Oc2ccc(O)c(I)c2)c(I)c1)C(=O)O [T3, 3,3',5-triiodo-L-thyronine]
[1]; 0, 0.25, 1 and 4 ppm
  relative weights of liver (RLW), right breast muscle (RBM), right leg muscle (RLM): not different among treatments
[1]; 0.25 ppm
  abdominal fat weight, reduction: 22.2% and > 20% and 22%
  effect on final body weight: no significant adverse effect in final body weight; also recorded: do not appear to have a statistically significant effect upon final body weight
[1]; 0.25 ppm of feed
  BW (final body weight): 2.42 kg
  RBM (right breast muscle): 5.60 % BW
  RLM (right leg muscle): 0.71 % BW
  RLW (relative liver weight): 2.24 % BW
[1]; 1.0 ppm
  effect on final body weight: significant sacrifice of final body weight
[1]; 1.0 ppm (p<0.05)
  abdominal fat weight, reduction: 26.6%
[1]; 1.0 ppm of feed
  Abdom. Fat: 1.88 % BW
  BW (final body weight): 2.33 kg
  RBM (right breast muscle): 5.36 % BW
  RLM (right leg muscle): 0.76 % BW
  RLW (relative liver weight): 2.14 % BW
[1]; 4.0 ppm
  effect on final body weight: excessive loss of final body weight
[1]; 4.0 ppm (p<0.05)
  abdominal fat weight, reduction: 63.3%
  final body weight, reduction: 22.2%
[1]; 4.0 ppm of feed
  Abdom. Fat: 0.94 % BW
  BW (final body weight): 1.99 kg
  RBM (right breast muscle): 5.81 % BW
  RLM (right leg muscle): 0.75 % BW
  RLW (relative liver weight): 2.18 % BW
[2]; 0.25 ppm
  overall protein turnover rate of breast muscle: did not differ from that of control birds
  protein accretion in breast and leg muscle, increase: 45-88%
[2]; 0.25 ppm of feed
  FAR, Leg muscles: 9.3 %/d
  FAR, Pectoralis major (breast muscle): 4.9 %/d
  FRD (fractional degradation rate), Leg muscles: 13.6 %/d
  FRD (fractional degradation rate), Pectoralis major: 12.3 %/d
  FSR, Leg muscles: 22.0 ± 2.1 %/d
  FSR, Pectoralis major: 17.2 ± 1.3 %/d
[2]; 0.25 ppm, vs control group
  FAR of leg muscle, increase: 45%
  FAR of pectoralis major (breast muscle), increase: 88%
[2]; 0.25 to 1 ppm
  effect on protein synthesis rate in breast muscle: only a slight effect upon protein synthesis rate in breast muscle
[2]; 1.0 ppm of feed
  FAR, Leg muscles: -2.0 %/d
  FAR, Pectoralis major (breast muscle): -4.5 %/d
  FRD (fractional degradation rate), Leg muscles: 24.1 %/d
  FRD (fractional degradation rate), Pectoralis major: 22.7 %/d
  FSR, Leg muscles: 22.1 ± 1.9 %/d
  FSR, Pectoralis major: 18.2 ± 1.7 %/d
[2]; 4 ppm
  fractional degradation rate of breast muscle, increase: 116%
[2]; 4.0 ppm (p<0.05)
  FSR of protein in breast muscle, increase: 55.7% and 56%
[2]; 4.0 ppm of feed
  FAR, Leg muscles: 5.0 %/d
  FAR, Pectoralis major (breast muscle): -3.8 %/d
  FRD (fractional degradation rate), Leg muscles: 18.4 %/d
  FRD (fractional degradation rate), Pectoralis major: 28.1 %/d
  FSR, Leg muscles: 23.4 ± 0.8 %/d
  FSR, Pectoralis major: 24.3 ± 1.4 %/d
[2]; plasma thyroid hormone bioactivity 360-1200% of normal
  accretion of certain muscle protein (particularly breast muscle): decreased
